According to publication PMC11129499, “The hepatoprotective effect of 4-phenyltetrahydroquinolines on carbon tetrachloride induced hepatotoxicity in rats through autophagy inhibition” (Biological Research, 2024):

Assays:
[1] = tested on: CCl4-induced hepatotoxicity; experiment: CCl4-induced hepatotoxicity model, liver histopathology (METAVIR scoring); type: in vivo, Wistar albino male rats; parameters: key to activity grade (METAVIR): A0 = none; A1 = mild; A2 = moderate; A3 = sever; key to fibrosis score (METAVIR): F0 = no fibrosis; F1 = mild/moderate; F2 = significant; F3 = advanced fibrosis; F4 = cirrhosis; conditions: 14 days
Description: (§1) Rats were divided into eleven groups, with seven rats in each group. Group I, the control group, received corn oil (1 ml/kg body weight, i.p.) every 72 h for 14 days. Group II, the hepatotoxicity group, received CCl4 (1 ml/kg body weight, a 1:1 v/v mixture of CCl4 and corn oil, i.p.) every 72 h for 14 days. Groups III–VI, the treated groups, received compounds (1a, 1b, 2a, and 2b), respectively, (25 mg/kg body weight, suspended in 0.5% CMC, p.o.) every 24 h, as well as CCl4 (1 ml/kg body weight, a 1:1 v/v mixture of CCl4 and corn oil, i.p.) every 72 h for 14 days. Group VII, the positive control group, received silymarin (100 mg/kg, suspended in 0.5% CMC, p.o.) every 24 h, as well as CCl4 (1 ml/kg body weight, a 1:1 v/v mixture of CCl4 and corn oil, i.p.) every 72 h for 14 days. Groups VIII–XI, the safety profile groups, received only compounds (1a, 1b, 2a, and 2b), respectively, (25 mg/kg, suspended in 0.5% CMC, p.o.) every 24 h for 14 days.
(§2) Rats were euthanized 24 h after the last dose of treatment with an inhaled overdose of isoflurane. Blood was extracted through a cardiac puncture, left for coagulation, and the serum was obtained by centrifugation for 10 min at 5000 rpm (GBF501, Centrifuge Cencom-II, Selecta). Livers were collected, then dissected into portions. One portion was fixed overnight in 10% buffered formalin (Adwic—El Nasr Pharmaceutical Co., Egypt) for histological examination. Another portion was homogenized, centrifuged at 10,000 rpm for 10 min, and the supernatants were collected for further investigation. Total protein content of all homogenates were determined using the Pierce™ BCA Protein Assay Kit (Catalog number: 23227, Thermo-Fisher Scientific Co., USA) following the manufacturer’s instructions. Liver tissues and homogenates were stored at − 80 °C until used.
(§3) Serial sectioning was done on the formalin-fixed liver tissues, which were then processed into paraffin blocks. Multiple serial, 5-μm-thick sections were cut and mounted on glass slides. One section was stained by H&E stain to assess the activity, while the other was stained by Masson trichrome stain to assess fibrosis. Both activity and fibrosis were assessed using a light microscope (Olympus, CX 22LED) using the METAVIR scoring system. For activity, the number of inflammatory foci (lobular necrosis) and degree of portal inflammation (piece meal necrosis) were evaluated, and then a final histological activity score was given (A0 = none, A1 = mild, A2 = moderate, and A3 = sever). Meanwhile, fibrosis assessment was done on Masson trichrome stained sections. The fibrosis scored according to a 4-tiered system (F0 = no fibrosis, F1 = mild/moderate, F2 = significant, F3 = advanced fibrosis, and F4 = cirrhosis). Other pathologic features, such as the presence or absence of steatosis and/or apoptotic hepatocytes, were assessed if present.

[2] = In-vivo toxicity study (compounds only), serum liver, lipid and kidney tests; conditions: compound only, 25 mg/kg p.o. every 24 h for 14 days
Description: (§4) Rats were divided into eleven groups, with seven rats in each group. Group I, the control group, received corn oil (1 ml/kg body weight, i.p.) every 72 h for 14 days. Group II, the hepatotoxicity group, received CCl4 (1 ml/kg body weight, a 1:1 v/v mixture of CCl4 and corn oil, i.p.) every 72 h for 14 days. Groups III–VI, the treated groups, received compounds (1a, 1b, 2a, and 2b), respectively, (25 mg/kg body weight, suspended in 0.5% CMC, p.o.) every 24 h, as well as CCl4 (1 ml/kg body weight, a 1:1 v/v mixture of CCl4 and corn oil, i.p.) every 72 h for 14 days. […]
(§5) Rats were euthanized 24 h after the last dose of treatment with an inhaled overdose of isoflurane. […] Total protein content of all homogenates were determined using the Pierce™ BCA Protein Assay Kit (Catalog number: 23227, Thermo-Fisher Scientific Co., USA) following the manufacturer’s instructions. […]
A variety of colorimetric serum diagnostic kits were used to assess the toxicity and hepatoprotective potential of the newly synthesized derivatives. Lipid profile parameters, including total cholesterol (TC) and triglycerides (TG), as well as kidney function tests, urea, and creatinine were measured to evaluate the toxicity profile. […]

[3] = tested on: liver tissues; experiment: In-vivo toxicity study (compounds only), liver histopathology (H&E, Masson trichrome); parameters: key to fibrosis score in liver sections (safety profile): F0 = no fibrosis; F1 = mild/moderate; F2 = significant; F3 = advanced fibrosis; F4 = cirrhosis; conditions: compound only, 25 mg/kg p.o. 14 days; for fibrosis score in liver sections (safety profile): Masson trichrome, METAVIR; for lobular inflammation in liver sections (safety profile): H&E, noted less frequently in Cpd 2b
Description: as §1, §2, §3

[4] = tested on: Human hepatoma (HepG2) cells; experiment: MTT in-vitro cytotoxicity assay on HepG2 cells; type: cell-based; conditions: HepG2, 24 h treatment, 7.8125-500 μM
Description: Human hepatoma (HepG2) cells were used to evaluate the in-vitro cytotoxicity of the newly synthesized compounds compared to tacrine as their structure-inspiring drug. The HepG2 cell line was obtained from ATCC. The cells were cultured in DMEM with high glucose, supplemented with 10% FBS, 100 U/ml penicillin, and 1% streptomycin were maintained in a 37 °C incubator with 5% CO2 in a humidified atmosphere. One day before the treatment, cells were seeded at a density of 1 × 10^4 cells/well in a sterile flat bottom 96-well tissue culture plate. After leaving the cells to adhere for 24 h, cells were treated with different concentrations (7.8125, 15.625, 31.25, 62.5, 125, 250, and 500 μM) of each compound as well as tacrine for 24 h in the 5% CO2 incubator.
Thereafter, cell viability was assessed using a 3-(4,5-dimethyl-2-thiazolyl)-2,5-diphenyl-tetrazolium bromide (MTT) assay obtained from Biobasic inc (Canada). Following the 24-h treatment period, MTT was added to the wells at a final concentration of 0.5 mg/mL, and the cells were incubated for 4 h in the dark. Subsequently, the media were carefully removed from the wells, and the formed formazan crystals were dissolved by adding 100 μL of DMSO. Absorbance readings were taken using a microplate reader (BioTek, USA), and the percentage cell viability was calculated for each condition relative to the control cells treated with the same DMSO concentration.

[5] = tested on: LC3B; experiment: CCl4 model, LC3B ELISA in liver homogenates; type: in vivo, Wistar albino male rats; conditions: CCl4 + compound 25 mg/kg (silymarin 100 mg/kg) p.o. daily, 14 days
Description: as §4, §5
(§6) The pro-inflammatory and pro-fibrotic cytokines tumor necrosis factor alpha (TNF-α) and transforming growth factor beta (TGF-β) were evaluated in liver tissues using ELISA kits (Catalog Numbers: CSB-E11987r and CSB-E04727r, CUSABIO, USA). For further investigation of the potential mechanism of action of the synthesized compounds, the levels of autophagy-related proteins, Beclin-1 (Catalog Number: CSB-EL002658RA, CUSABIO, USA) and LC3B (Catalog No. LS-F19802, Lifespan Biosciences, USA), were quantified in liver homogenates. […]

[6] = tested on: tumor necrosis factor alpha (TNF-α); experiment: CCl4 model, TNF-α ELISA in liver tissues; type: in vivo, Wistar albino male rats; conditions: CCl4 + compound 25 mg/kg p.o. daily, 14 days; vs hepatotoxicity group unless stated
Description: as §4, §5, §6

[7] = tested on: CCl4-induced oxidative stress; experiment: CCl4 model, oxidative stress markers (MDA, GSH) in liver homogenates; type: in vivo, Wistar albino male rats; conditions: CCl4 + compound 25 mg/kg p.o. daily, 14 days; vs hepatotoxicity group unless stated
Description: as §1, with “Groups VIII–XI, the safety profile groups, received only compounds (1a, 1b, 2a, and 2b), respectively, (25 mg/kg, suspended in 0.5% CMC, p.o.) every 24 h for 14 days.” left out
as §5
The level of reduced glutathione (GSH) was measured in liver tissue homogenates using a colorimetric kit for GSH (Cat.No.E-BC-K030-M, Elabscience, USA). Malondialdehyde (MDA) levels were determined as thiobarbituric acid reactive substances (TBARS) in liver homogenates according to the method of Draper and Hadley.

[8] = tested on: alpha-smooth muscle actin (α-SMA) positive HSCs/myofibroblasts; experiment: CCl4 model, α-SMA immunohistochemistry of liver sections; type: in vivo, Wistar albino male rats; conditions: CCl4 + compound 25 mg/kg p.o. daily, 14 days; vs hepatotoxicity group
Description: as §1
From paraffin-embedded blocks of liver tissues, 4- to 5-μm-thick sections were cut using a semi-automated microtome. […] They were stained by alpha-smooth muscle actin (α-SMA) primary antibody (Clone 1A4, ready-to-use, mouse monoclonal antibody, Dako) using the autostainer DAKO link 48. […] Using Image J software, activated HSCs/myofibroblasts were counted in the five high power fields. […] Only cells with well-visible nuclei were counted.

[9] = tested on: transforming growth factor beta (TGF-β); experiment: CCl4 model, TGF-β ELISA in liver tissues; type: in vivo, Wistar albino male rats; conditions: CCl4 + compound 25 mg/kg p.o. daily, 14 days; vs hepatotoxicity group unless stated
Description: as §4, §5, §6

[10] = tested on: Beclin-1; experiment: CCl4 model, Beclin-1 ELISA in liver homogenates; type: in vivo, Wistar albino male rats; conditions: CCl4 + compound 25 mg/kg (silymarin 100 mg/kg) p.o. daily, 14 days
Description: as §4, §5, §6

[11] = tested on: CCl4-induced hepatotoxicity; experiment: CCl4-induced hepatotoxicity model, serum liver function tests; type: in vivo, Wistar albino male rats; conditions: CCl4 1 ml/kg i.p. every 72 h + compound 25 mg/kg p.o. daily, 14 days; vs hepatotoxicity group unless stated
Description: as §1, §2
A variety of colorimetric serum diagnostic kits were used to assess the toxicity and hepatoprotective potential of the newly synthesized derivatives. Lipid profile parameters, including total cholesterol (TC) and triglycerides (TG), as well as kidney function tests, urea, and creatinine were measured to evaluate the toxicity profile. Liver function tests, including alanine transaminase (ALT), aspartate transaminase (AST), alkaline phosphatase (ALP), and total bilirubin (TBIL) were used for the assessment of both hepatotoxicity and hepatoprotective potential. All diagnostic kits were purchased from Biodiagnostics, Egypt, and were used and stored according to the manufacturer’s instructions.

[12] = CCl4 + compound 25 mg/kg p.o. daily
[13] = CCl4 + compound 25 mg/kg (silymarin 100 mg/kg) p.o. daily

SMILES | fibrosis score (METAVIR) ([1]; CCl4 + compound 25 mg/kg (silymarin 100 mg/kg) p.o. daily, hepatotoxicity group F4) | steatosis and apoptotic cells in liver sections [1, 12] | activity grade (METAVIR) ([1]; CCl4 + compound 25 mg/kg p.o. daily, hepatotoxicity group A3) | total cholesterol (safety profile) [2] | triglyceride levels (safety profile) [2] | fibrosis score in liver sections (safety profile) [3] | IC50 [4] [µM] | improvement of liver fibrosis / architecture, in words [1, 13] | lobular inflammation in liver sections (safety profile) [3] | lobular and portal inflammation (activity), in words [1, 12] | expression of LC3B protein [5] | TNF-α level in liver tissues [6] | MDA levels in liver homogenates [7] | number of α-SMA positive cells / 5 HPFs [8] | TGF-β level in liver tissues [9] | expression of Beclin-1 protein [10] | serum ALT [11] | serum AST [11]
CN(C)c1ccc(-c2c3c([nH]c(=O)c2C#N)CCCC3)cc1 [Cpd 1a, 4-(4-(dimethylamino)phenyl)-1,2,5,6,7,8-hexahydro-2-oxoquinoline-3-carbonitrile] | F3 | Macrovesicular steatosis and apoptotic cells were still detected | A2 | significantly lowering | significantly lowering | F0 | 181 | – | – | – | – | – | – | – | – | – | – | –
N#Cc1c(-c2ccc(O)cc2)c2c([nH]c1=O)CCCC2 [Cpd 1b, 1,2,5,6,7,8-hexahydro-4-(4-hydroxyphenyl)-2-oxoquinoline-3-carbonitrile] | – | – | – | – | – | F0 | 174 | better improvement in fibrosis score | mild, insignificant lobular inflammation (activity grade 1) | – | – | – | – | – | – | – | – | –
CN(C)c1ccc(-c2c(C#N)c(N)nc3c2CCCC3)cc1 [Cpd 2a, 2-Amino-4-(4-(dimethylamino)phenyl)-5,6,7,8-tetrahydroquinoline-3-carbonitrile] | – | No steatosis or apoptotic cells were detected | – | – | – | F0 | 171 | best protective effect on the liver sections | – | improved markedly | greater impact on inhibiting autophagy compared to the other compounds tested | better effect on decreasing the level of both cytokines relative to compounds 1a and 1b and silymarin | highly superior to compounds 1a, 1b and silymarin | better levels of significance, closely aligning with silymarin | better effect on decreasing the level of both cytokines relative to compounds 1a and 1b and silymarin | greater impact on inhibiting autophagy compared to the other compounds tested | as beneficial as silymarin | as beneficial as silymarin
N#Cc1c(N)nc2c(c1-c1ccc(O)cc1)CCCC2 [Cpd 2b, 2-Amino-5,6,7,8-tetrahydro-4-(4-hydroxyphenyl)quinoline-3-carbonitrile] | – | – | – | – | – | F0 | 169 | better improvement in fibrosis score | mild, insignificant lobular inflammation (activity grade 1) | – | greater impact on inhibiting autophagy compared to the other compounds tested | better effect on decreasing the level of both cytokines relative to compounds 1a and 1b and silymarin | highly superior to compounds 1a, 1b and silymarin | better levels of significance, closely aligning with silymarin | better effect on decreasing the level of both cytokines relative to compounds 1a and 1b and silymarin | greater impact on inhibiting autophagy compared to the other compounds tested | as beneficial as silymarin | as beneficial as silymarin
Nc1c2c(nc3ccccc13)CCCC2 [tacrine, Tacrine, reference compound] | – | – | – | – | – | – | 124 | – | – | – | – | – | – | – | – | – | – | –
